# Measurements reported in ChEMBL document CHEMBL3769391, “Identification of a new cyathane diterpene that induces mitochondrial and autophagy-dependent apoptosis and shows a potent in vivo anti-colorectal cancer activity” (Eur J Med Chem, 2016).
# The source made the active and inactive calls. No cut-off for these calls is given here.
# Columns and labels:
# HCT-116 [1] = assay: Induction of apoptosis in human HCT116 cells assessed as late apoptotic cells at 10 uM after 24 hrs by Annexin V-FITC/propidium iodide staining based flow cytometry (reference value: 4.54%); format: functional
# HCT-116 [2] = assay: Induction of apoptosis in human HCT116 cells assessed as decrease in Bcl-2 expression at 5 uM after 6 to 24 hrs by Western blot analysis; format: functional, cell-based
# HCT-116 [3] = assay: Induction of apoptosis in human HCT116 cells assessed as early apoptotic cells at 10 uM after 12 hrs by Annexin V-FITC/propidium iodide staining based flow cytometry (reference value: 1.13%); format: functional
# Mus musculus [4] = assay: Hepatotoxicity in immune deficient nude BALB/c mouse xenografted with Bax deficient human HCT116 cells assessed as changes in alanine transaminase level in serum at 5 and 10 mg/kg, ip administered every other day for 2 weeks measured during compound dosing; format: toxicity, organism-based, HCT-116; conditions: in vivo, 336 h
# HCT-116 [5] = assay: Induction of apoptosis in human HCT116 cells assessed as early apoptotic cells at 7.5 uM after 24 hrs by Annexin V-FITC/propidium iodide staining based flow cytometry (reference value: 1.06%); format: functional
# HCT-116 [6] = assay: Induction of apoptosis in human HCT116 cells assessed as increase in mitochondrial superoxide radical after 16 hrs by MitoSOX Red staining based flow cytometry; format: functional, cell-based
# HCT-116 [7] = assay: Induction of apoptosis in Bax deficient human HCT116 cells after 24 hrs by Annexin V-FITC/propidium iodide staining based flow cytometry; format: functional, cell-based
# HCT-116 [8] = assay: Induction of apoptosis in ATG5 scramble human HCT116 cells assessed as late apoptotic cells at 5 uM after 24 hrs by Annexin V-FITC/propidium iodide staining based flow cytometry (reference value: 3.35%); format: functional
# HCT-116 [9] = assay: Induction of apoptosis in Bax deficient human HCT116 cells assessed as late apoptotic cells at 15 uM after 24 hrs by Annexin V-FITC/propidium iodide staining based flow cytometry in presence of DTT (reference value: 1.56%); format: functional
# Mus musculus [10] = assay: Hepatotoxicity in immune deficient nude BALB/c mouse xenografted with Bax deficient human HCT116 cells assessed as changes in albumin level in serum at 5 and 10 mg/kg, ip administered every other day for 2 weeks measured during compound dosing; format: toxicity, organism-based, HCT-116; conditions: in vivo, 336 h
# HCT-116 [11] = assay: Induction of apoptosis in human HCT116 cells assessed as increase in BimS expression at 5 uM after 6 to 24 hrs by Western blot analysis; format: functional, cell-based
# HCT-116 [12] = assay: Induction of apoptosis in human HCT116 cells assessed as necrotic cells at 5 uM after 24 hrs by Annexin V-FITC/propidium iodide staining based flow cytometry in presence of NAC (reference value: 0.44%); format: functional
# HCT-116 [13] = assay: Induction of apoptosis in human HCT116 cells assessed as early apoptotic cells at 5 uM after 24 hrs by Annexin V-FITC/propidium iodide staining based flow cytometry (reference value: 1.06 to 2.2%); format: functional
# HCT-116 [14] = assay: Induction of apoptosis in human HCT116 cells assessed as PARP cleavage at 5 uM after 6 to 24 hrs by Western blot analysis; format: functional, cell-based
# HCT-116 [15] = assay: Induction of apoptosis in human HCT116 cells assessed as caspase activation at 5 uM by CaspACEFITC-VAD-FMK staining based flow cytometry; format: functional, cell-based; conditions: TDE = time-dependent effect
# HCT-116 [16] = assay: Induction of apoptosis in human HCT116 cells assessed as viable cells at 5 uM after 24 hrs by Annexin V-FITC/propidium iodide staining based flow cytometry (reference value: 93.64%); format: functional; conditions: HCT-116, 24 h, read-out: Activity
# HCT-116 [17] = assay: Induction of apoptosis in human HCT116 cells assessed as late apoptotic cells at 10 uM after 12 hrs by Annexin V-FITC/propidium iodide staining based flow cytometry (reference value: 3.37%); format: functional
# HCT-116 [18] = assay: Induction of apoptosis in human HCT116 cells assessed as viable cells at 5 uM after 24 hrs by Annexin V-FITC/propidium iodide staining based flow cytometry in presence of NAC (reference value: 93.64%); format: functional; conditions: HCT-116, 24 h, read-out: Activity
# Mus musculus [19] = assay: Hepatotoxicity in immune deficient nude BALB/c mouse xenografted with human HCT116 cells assessed as changes in albumin level in serum at 5 and 10 mg/kg, ip administered every other day for 2 weeks measured during compound dosing; format: toxicity, organism-based, HCT-116; conditions: in vivo, 336 h
# HCT-116 [20] = assay: Induction of apoptosis in human HCT116 cells assessed as caspase activation at 5 uM after 12 hrs by CaspACEFITC-VAD-FMK staining based flow cytometry (reference value: 7.72%); format: functional
# HCT-116 [21] = assay: Induction of autophagy in human HCT116 cells assessed as ATG5-ATG12 complex at 5 uM after 4 to 12 hrs by Western blot analysis; format: functional, cell-based
# [22] = Antitumor activity against Bax deficient human HCT116 cells xenografted in immune deficient nude BALB/c mouse assessed as tumor growth inhibition at 10 mg/kg, ip administered every other day for 2 weeks measured after 2 weeks post last dose relative to control; format: functional; conditions: HCT-116, ip, 336 h, read-out: TGI
# HCT-116 [23] = assay: Induction of chloroquine-induced autophagic flux in human HCT116 cells assessed as increase in LC3-2 level at 5 uM by Western blot analysis; format: functional, cell-based
# Mus musculus [24] = assay: Toxicity in immune deficient nude BALB/c mouse xenografted with Bax deficient human HCT116 cells assessed as changes in body weight at 5 and 10 mg/kg, ip administered every other day for 2 weeks measured during compound dosing; format: organism-based, HCT-116; conditions: in vivo, 336 h
# [25] = Cytotoxicity against human HCT116 cells assessed as reduction in cell viability after 24 hrs by MTT assay; format: functional, cell-based; conditions: HCT-116, 24 h
# HCT-116 [26] = assay: Induction of apoptosis in Bax deficient human HCT116 cells assessed as late apoptotic cells at 10 uM after 24 hrs by Annexin V-FITC/propidium iodide staining based flow cytometry (reference value: 1.5%); format: functional
# HCT-116 [27] = assay: Induction of apoptosis in Bax deficient human HCT116 cells assessed as late apoptotic cells at 5 uM after 24 hrs by Annexin V-FITC/propidium iodide staining based flow cytometry (reference value: 1.5%); format: functional
# HCT-116 [28] = assay: Induction of apoptosis in human HCT116 cells assessed as changes in Bcl-X(L) expression at 5 uM after 6 to 24 hrs by Western blot analysis; format: functional, cell-based
# HCT-116 [29] = assay: Induction of apoptosis in human HCT116 cells assessed as early apoptotic cells at 5 uM after 24 hrs by Annexin V-FITC/propidium iodide staining based flow cytometry in presence of NAC (reference value: 2.2%); format: functional
# HCT-116 [30] = assay: Induction of apoptosis in human HCT116 cells assessed as late apoptotic cells at 2.5 uM after 24 hrs by Annexin V-FITC/propidium iodide staining based flow cytometry (reference value: 4.54%); format: functional
# HCT-116 [31] = assay: Induction of apoptosis in human HCT116 cells assessed as early apoptotic cells at 5 uM after 24 hrs by Annexin V-FITC/propidium iodide staining based flow cytometry in presence of DTT (reference value: 2.2%); format: functional
# HCT-116 [32] = assay: Induction of apoptosis in human HCT116 cells assessed as changes in Beclin-1 expression at 5 uM after 4 to 12 hrs by Western blot analysis; format: functional, cell-based
# HCT-116 [33] = assay: Induction of apoptosis in human HCT116 cells assessed as apoptotic cells at 5 uM after 24 hrs by Annexin V-FITC/propidium iodide staining based flow cytometry in presence of caspase inhibitor Z-VAD-FMK; format: functional
smiles,measurement,setting,value
CO[C@@H]1C(C=O)=CC[C@@H]2C3=C(C(C)C)CC[C@]3(C)CC[C@@]2(C)[C@H]1O,Activity,HCT-116 [1],22.57%
same,Activity,HCT-116 [2],Active
same,Activity,HCT-116 [3],30.19%
same,Activity,Mus musculus [4],Non-toxic
same,Activity,HCT-116 [5],51.38%
same,Activity,HCT-116 [6],Dose-dependent effect
same,Activity,HCT-116 [7],Dose-dependent effect
same,Activity,HCT-116 [8],5.53%
same,Activity,HCT-116 [9],3.36%
same,Activity,Mus musculus [10],Non-toxic
same,Activity,HCT-116 [11],Active
same,Activity,HCT-116 [12],0.81%
same,Activity,HCT-116 [13],24.72%
same,Activity,HCT-116 [14],Active
same,Activity,HCT-116 [15],tde
same,viability at 5 µM,HCT-116 [16],56.3%
same,Activity,HCT-116 [17],22.01%
same,viability at 5 µM,HCT-116 [18],91.4%
same,Activity,Mus musculus [19],Non-toxic
same,Activity,HCT-116 [20],66.85%
same,Activity,HCT-116 [21],Active
same,inhibition in vivo at 10 mg/kg,[22],60.1%
same,Activity,HCT-116 [23],Active
same,Activity,Mus musculus [24],Non-toxic
same,IC50,[25],9.16 µM
same,Activity,HCT-116 [26],17.64%
same,Activity,HCT-116 [27],4.14%
same,Activity,HCT-116 [28],inactive
same,Activity,HCT-116 [29],1.35%
same,Activity,HCT-116 [30],7.54%
same,Activity,HCT-116 [31],5.58%
same,Activity,HCT-116 [32],inactive
same,Activity,HCT-116 [33],28.81%
